What all share (experiment): In vitro antimicrobial activity, MIC by broth microdilution (CLSI)
Type in all cases: cell-based
In general terms: Broth dilution looks for growth in wells or tubes with falling amounts of substance.

The test system of assay [1] is K. pneumoniae SR01358. The following applies: Klebsiella pneumoniae. The method, then:
(§1) Compound (I) of the invention was evaluated for in vitro antimicrobial activity thereof.
(§2) Measurement of Minimum Inhibitory Concentration (MIC: μg/mL) was conducted according to CLSI (Clinical and Laboratory Standards Institute) method, and the amount of bacteria for inoculation was 5×10^5 cfu/mL, and cation-adjusted Iso-Sensitest broth containing human Apo-transferrin was used as a test medium, and the experiment was conducted using broth microdilution method. The bacteria used are listed below.

The test system of assay [2] is A. baumannii JMI2346. To be noted: Acinetobacter baumannii. The method, then: as §1, §2
Assay [3] deals with E. Coli JMI1890. To be noted: Escherichia coli, read-out: Minimum Inhibitory Concentration (MIC) E. Coli JMI:1890. The method, then:
as §1, §2

Assay [4] deals with A. baumannii JMI7. To be noted: Acinetobacter baumannii. The method, then:
as §1, §2

Where [5] appears, read: SR01358, KPC-2, ESBL and KPC-type carbapenemase producing strain, 5×10^5 cfu/mL, cation-adjusted Iso-Sensitest broth containing human Apo-transferrin, read-out: Minimum Inhibitory Concentration (MIC) K. pneumoniae SR01358.
The mark [6] stands for this setting: JMI2346, OXA-51, TEM, ESBL and OXA-type carbapenemase producing strain, 5×10^5 cfu/mL, cation-adjusted Iso-Sensitest broth containing human Apo-transferrin, read-out: Minimum Inhibitory Concentration (MIC) A. baumannii JMI:2346.
[7] abbreviates: PER-1, TEM-1, ESBL producing strain, 5×10^5 cfu/mL, cation-adjusted Iso-Sensitest broth containing human Apo-transferrin.
Where [8] appears, read: JMI7, PER-1, OXA-23, 51, ESBL and OXA-type carbapenemase producing strain, 5×10^5 cfu/mL, cation-adjusted Iso-Sensitest broth containing human Apo-transferrin, read-out: Minimum Inhibitory Concentration (MIC) A. baumannii JMI:7.

In brackets after ≈: the same amount, converted by molar mass. Where two headings read alike, the source gives them in different places. Some results are limits rather than exact numbers.

Consider `C[C@@H]1S[C@@H]2[C@H](NC(=O)/C(=N\OC(C)(C)C(=O)[O-])c3csc(N)n3)C(=O)N2C(C(=O)[O-])=C1C[N+]1(CCN2C(=O)c3cc(O)c(O)cc3C2=O)CCCC1.[Na+]` [Compound I-1], for which the MIC in assay [1] (setting [5]) is not above 0.031 µg/mL; in assay [2] (setting [6]), 16 µg/mL; in assay [3] (setting [7]) it was 1 µg/mL; in assay [4] (setting [8]), 1 µg/mL.

Regarding `C[C@@H]1S[C@@H]2[C@H](NC(=O)/C(=N\OC(C)(C)C(=O)[O-])c3csc(N)n3)C(=O)N2C(C(=O)[O-])=C1C[N+]12CCC(CNC(=O)C(=O)c3ccc(O)c(O)c3Cl)(CC1)CC2.[Na+]` [Compound I-3], the MIC in assay [1] (setting [5]) was not above 0.031 µg/mL; in assay [2] (setting [6]), 2 µg/mL; in assay [3] (setting [7]), 0.5 µg/mL; in assay [4] (setting [8]) it was 0.5 µg/mL.

In the case of `C[C@@H]1S[C@@H]2[C@H](NC(=O)/C(=N\OC(C)(C)C(=O)[O-])c3csc(N)n3)C(=O)N2C(C(=O)[O-])=C1C[N+]1(CCn2[nH]c(=O)c3cc(O)c(O)cc3c2=O)CCCC1.[Na+]` [Compound I-4], the MIC is not above 0.031 µg/mL in assay [1] (setting [5]), 2 µg/mL in assay [3] (setting [7]) and 1 µg/mL in assay [4] (setting [8]).

Consider `C[C@@H]1S[C@@H]2[C@H](NC(=O)/C(=N\OC(C)(C)C(=O)[O-])c3csc(N)n3)C(=O)N2C(C(=O)[O-])=C1C[N+]1(CCNC(=O)C(=O)c2cc(O)c(O)c(Cl)c2)CCCC1.[Na+]` [Compound I-8], for which the MIC in assay [1] (setting [5]) was found to be 0.25 µg/mL; in assay [2] (setting [6]) it was 16 µg/mL; in assay [3] (setting [7]) it was 1 µg/mL; in assay [4] (setting [8]) it was 1 µg/mL.

For the compound `C[C@@H]1S[C@@H]2[C@H](NC(=O)/C(=N\OC(C)(C)C(=O)[O-])c3csc(N)n3)C(=O)N2C(C(=O)[O-])=C1C[N@+]12CCC[C@H]1CN(C(=O)C(=O)c1cc(O)c(O)c(Cl)c1)CC2.[Na+]` [Compound I-10], the MIC in assay [1] (setting [5]) was not above 0.031 µg/mL; in assay [2] (setting [6]), 8 µg/mL; in assay [3] (setting [7]) it was 1 µg/mL; in assay [4] (setting [8]), 1 µg/mL.

Consider `C[C@@H]1S[C@@H]2[C@H](NC(=O)/C(=N\O[C@@H](CC(=O)[O-])C(=O)[O-])c3csc(N)n3)C(=O)N2C(C(=O)[O-])=C1C[N@+]12CCC[C@H]1CN(C(=O)C(=O)c1cc(O)c(O)c(Cl)c1)CC2.[Na+].[Na+]` [Compound I-11], for which the MIC amounted to 0.063 µg/mL in assay [1] (setting [5]), 16 µg/mL in assay [2] (setting [6]), 2 µg/mL in assay [3] (setting [7]) and 2 µg/mL in assay [4] (setting [8]).

Take `C[C@@H]1S[C@@H]2[C@H](NC(=O)/C(=N\OC(C)(C)C(=O)[O-])c3csc(N)n3)C(=O)N2C(C(=O)[O-])=C1C[N@+]1(C)[C@@H]2CC[C@H]1C[C@@H](NC(=O)C(=O)c1cc(O)c(O)c(Cl)c1)C2.[Na+]` [Compound I-12]: the MIC was not above 0.031 µg/mL in assay [1] (setting [5]), 4 µg/mL in assay [2] (setting [6]), 0.25 µg/mL in assay [3] (setting [7]) and 1 µg/mL in assay [4] (setting [8]).

Take `C[C@@H]1S[C@@H]2[C@H](NC(=O)/C(=N\O[C@@H](CC(=O)[O-])C(=O)[O-])c3csc(N)n3)C(=O)N2C(C(=O)[O-])=C1C[N@+]1(C)[C@@H]2CC[C@H]1C[C@@H](NC(=O)C(=O)c1cc(O)c(O)c(Cl)c1)C2.[Na+].[Na+]` [Compound I-13]: the MIC in assay [1] (setting [5]) worked out at 0.063 µg/mL; in assay [2] (setting [6]) it was 8 µg/mL; in assay [3] (setting [7]) it was 1 µg/mL; in assay [4] (setting [8]) it was 2 µg/mL.

Regarding `C[C@@H]1S[C@@H]2[C@H](NC(=O)/C(=N\OC(C)(C)C(=O)[O-])c3csc(N)n3)C(=O)N2C(C(=O)[O-])=C1C[N+]12CCC(CNC(=O)C(=O)c3cc(O)c(O)c(Cl)c3)(CC1)CC2.[Na+]` [Compound I-14], the MIC in assay [1] (setting [5]) was not above 0.031 µg/mL; in assay [2] (setting [6]), 8 µg/mL; in assay [3] (setting [7]), 1 µg/mL; in assay [4] (setting [8]), 2 µg/mL.

Consider `C[C@@H]1S[C@@H]2[C@H](NC(=O)/C(=N\O[C@@H](CC(=O)[O-])C(=O)[O-])c3csc(N)n3)C(=O)N2C(C(=O)[O-])=C1C[N+]12CCC(CNC(=O)C(=O)c3cc(O)c(O)c(Cl)c3)(CC1)CC2.[Na+].[Na+]` [Compound I-15], for which the MIC in assay [2] (setting [6]) came out at 16 µg/mL; in assay [3] (setting [7]), 1 µg/mL; in assay [4] (setting [8]) it was 4 µg/mL.

Turning to `C[C@@H]1S[C@@H]2[C@H](NC(=O)/C(=N\OC(C)(C)C(=O)[O-])c3csc(N)n3)C(=O)N2C(C(=O)[O-])=C1C[N+]12CCC(CC1)N(C(=O)C(=O)c1cc(O)c(O)c(Cl)c1)CC2.[Na+]` [Compound I-16], the MIC in assay [1] (setting [5]) was not above 0.031 µg/mL; in assay [2] (setting [6]), 8 µg/mL; in assay [3] (setting [7]) it was 0.5 µg/mL; in assay [4] (setting [8]), 1 µg/mL.

As to `C[C@@H]1S[C@@H]2[C@H](NC(=O)/C(=N\O[C@@H](CC(=O)[O-])C(=O)[O-])c3csc(N)n3)C(=O)N2C(C(=O)[O-])=C1C[N+]12CCC(CC1)N(C(=O)C(=O)c1cc(O)c(O)c(Cl)c1)CC2.[Na+].[Na+]` [Compound I-17], the MIC in assay [1] (setting [5]) was not above 0.031 µg/mL; in assay [2] (setting [6]) it was 16 µg/mL; in assay [3] (setting [7]) it was 2 µg/mL; in assay [4] (setting [8]), 4 µg/mL.

Consider `C[C@@H]1S[C@@H]2[C@H](NC(=O)/C(=N\OC(C)(C)C(=O)[O-])c3csc(N)n3)C(=O)N2C(C(=O)O)=C1C[N@+]1(C)[C@@H]2CC[C@H]1C[C@@H](NC(=O)C(=O)c1ccc(O)c(O)c1Cl)C2` [Compound I-20], for which the MIC in assay [1] (SR01358, read-out: Minimum Inhibitory Concentration (MIC) K. pneumoniae SR01358) is not above 0.031 µg/mL; in assay [2] (JMI2346, read-out: Minimum Inhibitory Concentration (MIC) A. baumannii JMI:2346) it was 0.5 µg/mL (≈ 0.61 µM); in assay [3] it was 0.063 µg/mL (≈ 0.0768 µM); in assay [4] (JMI7, read-out: Minimum Inhibitory Concentration (MIC) A. baumannii JMI:7), 0.125 µg/mL (≈ 0.152 µM).

As for `C[C@@H]1S[C@@H]2[C@H](NC(=O)/C(=N\OC(C)(C)C(=O)[O-])c3csc(N)n3)C(=O)N2C(C(=O)O)=C1C[N+]1(CCNN2C(=O)c3cc(O)c(O)cc3C2=O)CCCC1` [Compound I-26], the MIC in assay [1] (setting [5]) is not above 0.031 µg/mL; in assay [2] (setting [6]), 4 µg/mL (≈ 5.18 µM); in assay [3] (setting [7]), 0.5 µg/mL (≈ 0.647 µM); in assay [4] (setting [8]), 0.5 µg/mL (≈ 0.647 µM).

In the case of `C[C@@H]1S[C@@H]2[C@H](NC(=O)/C(=N\OC(C)(C)C(=O)[O-])c3csc(N)n3)C(=O)N2C(C(=O)O)=C1C[N+]1(CCON2C(=O)c3cc(O)c(O)cc3C2=O)CCCC1` [Compound I-27], the MIC in assay [1] (setting [5]) was not above 0.031 µg/mL; in assay [2] (setting [6]) it was 4 µg/mL (≈ 5.17 µM); in assay [3] (setting [7]) it was 0.5 µg/mL (≈ 0.646 µM); in assay [4] (setting [8]) it was 0.5 µg/mL (≈ 0.646 µM).

As to `CC[N+](CC)(CCN1C(=O)c2ccc(O)c(O)c2C1=O)CC1=C(C(=O)O)N2C(=O)[C@@H](NC(=O)/C(=N\OC(C)(C)C(=O)[O-])c3csc(N)n3)[C@H]2S[C@H]1C` [Compound I-36], the MIC stood at 0.125 µg/mL (≈ 0.165 µM) in assay [1] (setting [5]), 4 µg/mL (≈ 5.26 µM) in assay [2] (setting [6]), 0.5 µg/mL (≈ 0.658 µM) in assay [3] (setting [7]) and 0.5 µg/mL (≈ 0.658 µM) in assay [4] (setting [8]).

For the compound `C[C@@H]1S[C@@H]2[C@H](NC(=O)/C(=N\OC(C)(C)C(=O)[O-])c3csc(N)n3)C(=O)N2C(C(=O)[O-])=C1C[N+]1(C)C[C@H]2CN(C(=O)c3cc(O)c(O)c(Cl)c3)C[C@H]2C1.[Na+]` (stereo partly shown) [Compound I-63], the MIC in assay [1] (setting [5]) was not above 0.031 µg/mL; in assay [3] (setting [7]) it was 1 µg/mL; in assay [4] (setting [8]), 1 µg/mL.

As for `C[C@@H]1S[C@@H]2[C@H](NC(=O)/C(=N\OC(C)(C)C(=O)[O-])c3csc(N)n3)C(=O)N2C(C(=O)O)=C1C[N+]1(CCNC(=O)c2cc(=O)c(O)c[nH]2)CCCC1` [Compound I-130], the MIC in assay [1] (setting [5]) is not above 0.031 µg/mL; in assay [3] (setting [7]) it was 8 µg/mL (≈ 10.9 µM).

`C[C@@H]1S[C@@H]2[C@H](NC(=O)/C(=N\OC(C)(C)C(=O)[O-])c3csc(N)n3)C(=O)N2C(C(=O)[O-])=C1C[N+]12CCC(CNC(=O)c3cc(=O)c(O)c[nH]3)(CC1)CC2.[Na+]` [Compound I-140]: the MIC in assay [1] (setting [5]) was not above 0.031 µg/mL; in assay [3] (setting [7]), 0.5 µg/mL; in assay [4] (setting [8]), 4 µg/mL.

The values above are taken from US10174053B2, “2 substituted cephem compounds” (Glaxo Group Limited, priority 2012, dated 2019).
